Consider 29 compounds from patent US9751858B2, “3-heteroaroylamino-propionic acid derivatives and their use as pharmaceuticals” (SANOFI, priority 2011, dated 2017).

The target in the test is T1, Recombinant human cathepsin A (Homo sapiens, UniProt P10619).
T1 construct: Recombinant human cathepsin A (residues 29-480, with a C-terminal 10-His tag); 10-His (C); purchased R&D Systems 1049-SE
T1 sequence (P10619 29-326 limits assumed): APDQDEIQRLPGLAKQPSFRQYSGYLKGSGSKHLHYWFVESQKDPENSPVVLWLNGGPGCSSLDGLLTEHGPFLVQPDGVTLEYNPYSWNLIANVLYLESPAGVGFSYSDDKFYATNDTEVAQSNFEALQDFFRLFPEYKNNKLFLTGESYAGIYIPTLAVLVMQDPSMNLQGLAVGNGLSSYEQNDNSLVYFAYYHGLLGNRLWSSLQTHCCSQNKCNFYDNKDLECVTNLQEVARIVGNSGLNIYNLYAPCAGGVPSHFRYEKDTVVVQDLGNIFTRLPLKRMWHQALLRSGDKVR
T1 sequence (P10619 327-480 limits assumed): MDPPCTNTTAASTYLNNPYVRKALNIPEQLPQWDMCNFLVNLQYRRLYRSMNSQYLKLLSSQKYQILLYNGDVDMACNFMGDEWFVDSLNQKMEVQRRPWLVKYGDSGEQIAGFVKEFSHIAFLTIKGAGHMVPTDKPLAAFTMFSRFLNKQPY
Put plainly: Cathepsin A inhibitory activity. In kind it is biochemical. As to conditions: activated recombinant human cathepsin A 833 ng/ml, Bodipy FL-labeled bradykinin 2 μM, pH 5.5, 15 min room temperature. The method, then: a) Cathepsin a Inhibitory Activity
Briefly, cathepsin A was incubated at 10 μg/ml with cathepsin L at 1 μg/ml in activation buffer (25 mM 2-(morpholin-4-yl)-ethanesulfonic acid (MES), pH 6.0, containing 5 mM dithiothreitol (DTT)) for 15 min at 37° C.
The activated cathepsin A was diluted in assay buffer (25 mM MES, pH 5.5, containing 5 mM DTT) and mixed with the test compound (dissolved in assay buffer containing (v/v) 3% DMSO) or, in the control experiments, with the vehicle in a multiple assay plate. After incubation for 15 min at room temperature, as substrate then bradykinin carrying an N-terminal ®Bodipy FL (4,4-difluoro-5,7-dimethyl-4-bora-3a,4a-diaza-s-indacene-3-propionyl) label (JPT Peptide Technologies GmbH; dissolved in assay buffer) was added to the mixture. […] After incubation for 15 min at room temperature the reaction was stopped by the addition of stop buffer (130 mM 2-(4-(2-hydroxy-ethyl)-piperazin-1-yl)-ethanesulfonic acid, pH 7.4, containing (v/v) 0.013%® Triton X-100, 0.13% Coating Reagent 3 (Caliper Life Sciences), 6.5% DMSO and 20 μM ebelactone B (Sigma, # E0886)).
Uncleaved substrate and product were then separated by a microfluidic capillary electrophoresis on a LabChip® 3000 Drug Discovery System (12-Sipper-Chip; Caliper Life Sciences) and quantified by determination of the respective peak areas. Substrate turnover was calculated by dividing product peak area by the sum of substrate and product peak areas, and the enzyme activity and the inhibitory effect of the test compound thus quantified.

For `Cc1cccc([C@H](CC(=O)O)NC(=O)CCc2nc(-c3ccccc3F)no2)c1` [Example 50, (S)-3-{3-[3-(2-Fluoro-phenyl)-[1,2,4]oxadiazol-5-yl]-propionylamino}-3-m-tolyl-propionic acid], the IC50 (commonly the concentration that inhibits the measured activity by half) was above 10 µM.
In the case of `Cc1oc(-c2ccccc2F)nc1C(=O)N[C@@H](CC(=O)O)c1ccc(F)cc1` [Example 37, (S)-3-(4-Fluoro-phenyl)-3-{[2-(2-fluoro-phenyl)-5-methyl-oxazole-4-carbonyl]-amino}-propionic acid], the IC50 was determined as 4.2 µM.
As for `O=C(O)C[C@H](NC(=O)c1noc(-c2ccccc2F)n1)c1ccccc1C(F)(F)F` [Example 80, (S)-3-{[5-(2-Fluoro-phenyl)-[1,2,4]oxadiazole-3-carbonyl]-amino}-3-(2-trifluoromethyl-phenyl)-propionic acid], the figure is 11.9 µM; as for `O=C(O)C[C@H](NC(=O)c1noc(-c2cccc(F)c2F)n1)c1ccccc1C(F)(F)F` [Example 101, (S)-3-{[5-(2,3-Difluoro-phenyl)-[1,2,4]oxadiazole-3-carbonyl]-amino}-3-(2-trifluoromethyl-phenyl)-propionic acid], above 10 µM.
The figure for `Cc1oc(-c2ccccc2)nc1C(=O)N[C@@H](CC(=O)O)c1ccccc1C(F)(F)F` [Example 78, (S)-3-[(5-Methyl-2-phenyl-oxazole-4-carbonyl)-amino]-3-(2-trifluoromethyl-phenyl)-propionic acid] is 8.47 µM.
For the compound `Cc1ccccc1[C@H](CC(=O)O)NC(=O)c1nn(C)cc1NS(=O)(=O)CC1CCCCC1` [Example 119, (S)-3-[(4-Cyclohexylmethanesulfonylamino-1-methyl-1H-pyrazole-3-carbonyl)-amino]-3-o-tolyl-propionic acid], the IC50 is above 10 µM.
Consider `O=C(O)C[C@@H](Cc1ccccc1)NC(=O)c1noc(-c2ccccc2F)n1` [Example 13, (R)-3-{[5-(2-Fluoro-phenyl)-[1,2,4]oxadiazole-3-carbonyl]-amino}-4-phenyl-butyric acid], for which the IC50 came to 0.316 µM.
On to `CCCc1nc(C(=O)N[C@@H](CC(=O)O)c2ccc(C)cc2)nn1-c1ccccc1Cl` [Example 88, (S)-3-{[1-(2-Chloro-phenyl)-5-propyl-1H-[1,2,4]triazole-3-carbonyl]-amino}-3-p-tolyl-propionic acid], for which the IC50 stood at 0.335 µM.
The figure for `O=C(O)C[C@H](NC(=O)CCc1nc(-c2ccccc2F)no1)c1ccccc1` [Example 31, (S)-3-{3-[3-(2-Fluoro-phenyl)-[1,2,4]oxadiazol-5-yl]-propionylamino}-3-phenyl-propionic acid] is above 10 µM; for `COc1cccc([C@H](CC(=O)O)NC(=O)c2nc(-c3ccccc3)oc2C)c1OC` [Example 66, (S)-3-(2,3-Dimethoxy-phenyl)-3-[(5-methyl-2-phenyl-oxazole-4-carbonyl)-amino]-propionic acid] it is 12.5 µM; for `O=C(O)C[C@H](NC(=O)c1noc(-c2ccccc2F)n1)c1ccccc1F` [Example 17, (S)-3-(2-Fluoro-phenyl)-3-{[5-(2-fluoro-phenyl)-[1,2,4]oxadiazole-3-carbonyl]-amino}-propionic acid] it is above 10 µM.
As for `O=C(O)C[C@H](NC(=O)c1noc(-c2ccccc2F)n1)c1cccc(C(F)(F)F)c1` [Example 81, (S)-3-{[5-(2-Fluoro-phenyl)-[1,2,4]oxadiazole-3-carbonyl]-amino}-3-(3-trifluoromethyl-phenyl)-propionic acid], the figure is above 10 µM; as for `Cn1cc(NS(=O)(=O)CC2CCCCC2)c(C(=O)N[C@@H](CC(=O)O)c2ccccc2)n1` [Example 109, (S)-3-[(4-Cyclohexylmethanesulfonylamino-1-methyl-1H-pyrazole-3-carbonyl)-amino]-3-phenyl-propionic acid], above 10 µM.
Turning to `O=C(O)C[C@H](NC(=O)CCc1nc(-c2ccccc2F)no1)c1cccc(Cl)c1Cl` [Example 112, (S)-3-(2,3-Dichloro-phenyl)-3-{3-[3-(2-fluoro-phenyl)-[1,2,4]oxadiazol-5-yl]-propionylamino}-propionic acid], the IC50 was above 10 µM.
The figure for `Cc1oc(-c2ccccc2F)nc1C(=O)N[C@@H](CC(=O)O)c1ccc(C(F)(F)F)cc1` [Example 93, (S)-3-{[2-(2-Fluoro-phenyl)-5-methyl-oxazole-4-carbonyl]-amino}-3-(4-trifluoromethyl-phenyl)-propionic acid] is 0.944 µM; for `O=C(O)C[C@H](NC(=O)CCc1nc(-c2ccccc2F)no1)c1cccc(Cl)c1` [Example 74, (S)-3-(3-Chloro-phenyl)-3-{3-[3-(2-fluoro-phenyl)-[1,2,4]oxadiazol-5-yl]-propionylamino}-propionic acid] it is 0.61 µM; for `C[C@@](CC(=O)O)(NC(=O)CCc1nc(-c2ccccc2F)no1)c1ccccc1` [Example 51, (S)-3-{3-[3-(2-Fluoro-phenyl)-[1,2,4]oxadiazol-5-yl]-propionylamino}-3-phenyl-butyric acid] it is above 10 µM.
Take `CC(C)c1oc(-c2ccccc2)nc1C(=O)N[C@@H](CC(=O)O)c1ccc(F)cc1` [Example 48, (S)-3-(4-Fluoro-phenyl)-3-[(5-isopropyl-2-phenyl-oxazole-4-carbonyl)-amino]-propionic acid]: the IC50 worked out at 1.82 µM.
For `O=C(O)C[C@H](NC(=O)c1noc(-c2ccccc2F)n1)c1cccc(F)c1` [Example 18, (S)-3-(3-Fluoro-phenyl)-3-{[5-(2-fluoro-phenyl)-[1,2,4]oxadiazole-3-carbonyl]-amino}-propionic acid], the half-inhibitory concentration (IC50) is above 10 µM.
As for `Cc1oc(-c2ccccc2F)nc1C(=O)N[C@@H](CC(=O)O)c1cccc(C(F)(F)F)c1` [Example 92, (S)-3-{[2-(2-Fluoro-phenyl)-5-methyl-oxazole-4-carbonyl]-amino}-3-(3-trifluoromethyl-phenyl)-propionic acid], the figure is 1.14 µM; as for `O=C(O)C[C@H](NC(=O)c1nc(-c2ccccc2)oc1C(F)(F)F)c1cccc(Cl)c1Cl` [Example 122, (S)-3-(2,3-Dichloro-phenyl)-3-[(2-phenyl-5-trifluoromethyl-oxazole-4-carbonyl)-amino]-propionic acid], 1.95 µM.
Turning to `Cc1nc(C(=O)N[C@@H](CC(=O)O)c2ccccc2)nn1-c1ccccc1Cl` [Example 33, (S)-3-{[1-(2-Chloro-phenyl)-5-methyl-1H-[1,2,4]triazole-3-carbonyl]-amino}-3-phenyl-propionic acid], the IC50 was found to be 1.03 µM.
As to `Cc1cccc([C@H](CC(=O)O)NC(=O)c2noc(-c3ccccc3F)n2)c1` [Example 16, (S)-3-{[5-(2-Fluoro-phenyl)-[1,2,4]oxadiazole-3-carbonyl]-amino}-3-m-tolyl-propionic acid], the IC50 is above 10 µM.
On to `COc1cccc([C@H](CC(=O)O)NC(=O)c2nc(-c3ccccc3)oc2C)c1` [Example 24, (S)-3-(3-Methoxy-phenyl)-3-[(5-methyl-2-phenyl-oxazole-4-carbonyl)-amino]-propionic acid], for which the IC50 was 6.39 µM.
Consider `Cc1ccccc1[C@H](CC(=O)O)NC(=O)c1cc(-c2ccccc2)on1` [Example 2, (S)-3-[(5-Phenyl-isoxazole-3-carbonyl)-amino]-3-o-tolyl-propionic acid], for which the IC50 stood at 6.96 µM.
With `O=C(O)C[C@H](NC(=O)c1noc(-c2ccccc2F)n1)c1ccc(F)cc1` [Example 19, (S)-3-(4-Fluoro-phenyl)-3-{[5-(2-fluoro-phenyl)-[1,2,4]oxadiazole-3-carbonyl]-amino}-propionic acid], the IC50 worked out at 8.58 µM.
For `Cc1oc(-c2ccccc2F)nc1C(=O)N[C@@H](CC(=O)O)c1cccc(F)c1` [Example 36, (S)-3-(3-Fluoro-phenyl)-3-{[2-(2-fluoro-phenyl)-5-methyl-oxazole-4-carbonyl]-amino}-propionic acid], the IC50 turned out to be 0.198 µM.
The figure for `O=C(O)C[C@H](NC(=O)c1nc(-c2ccccc2)oc1C(F)(F)F)c1cccc(Cl)c1` [Example 96, (S)-3-(3-Chloro-phenyl)-3-[(2-phenyl-5-trifluoromethyl-oxazole-4-carbonyl)-amino]-propionic acid] is 10.3 µM; for `CCCC1CCCCN1C(=O)c1cc(C(=O)N[C@@H](CC(=O)O)c2ccccc2)nn1CC` (stereo partly drawn) [Example 100, (S)-3-{[1-Ethyl-5-(2-propyl-piperidine-1-carbonyl)-1H-pyrazole-3-carbonyl]-amino}-3-phenyl-propionic acid] it is 4.75 µM.
